Data published in ChEMBL document CHEMBL5653631, “A Potent and Selective ULK1 Inhibitor Suppresses Autophagy and Sensitizes Cancer Cells to Nutrient Stress” (iScience, 2018).

Key:
[1] = target: Protein kinase C beta type (Homo sapiens) (UniProt P05771); experiment: Inhibition of human recombinant PKCb at 40 nM related to control ULK1
[2] = target: Serine/threonine-protein kinase PAK 4 (Homo sapiens) (UniProt O96013); experiment: Inhibition of human recombinant PAK4 at 40 nM in presence of ATP by radiometric assay relative to control
[3] = target: Serine/threonine-protein kinase MARK1 (Homo sapiens) (UniProt Q9P0L2); experiment: Inhibition of human recombinant MARK1 at 15 nM in presence of ATP by radiometric assay relative to control
[4] = target: Activin receptor type-2A (Homo sapiens) (UniProt P27037); experiment: Inhibition of human recombinant ACTR2 at 15 nM related to control ULK1
[5] = target: Serine/threonine-protein kinase PLK3 (Homo sapiens) (UniProt Q9H4B4); experiment: Inhibition of human recombinant PLK3 at 15 nM in presence of ATP by radiometric assay relative to control
[6] = target: T1, Serine/threonine-protein kinase TAO1 (Homo sapiens) (UniProt Q7L7X3); experiment: Inhibition of human recombinant TAO1 at 15 nM related to control ULK1
T1 sequence (whole entry): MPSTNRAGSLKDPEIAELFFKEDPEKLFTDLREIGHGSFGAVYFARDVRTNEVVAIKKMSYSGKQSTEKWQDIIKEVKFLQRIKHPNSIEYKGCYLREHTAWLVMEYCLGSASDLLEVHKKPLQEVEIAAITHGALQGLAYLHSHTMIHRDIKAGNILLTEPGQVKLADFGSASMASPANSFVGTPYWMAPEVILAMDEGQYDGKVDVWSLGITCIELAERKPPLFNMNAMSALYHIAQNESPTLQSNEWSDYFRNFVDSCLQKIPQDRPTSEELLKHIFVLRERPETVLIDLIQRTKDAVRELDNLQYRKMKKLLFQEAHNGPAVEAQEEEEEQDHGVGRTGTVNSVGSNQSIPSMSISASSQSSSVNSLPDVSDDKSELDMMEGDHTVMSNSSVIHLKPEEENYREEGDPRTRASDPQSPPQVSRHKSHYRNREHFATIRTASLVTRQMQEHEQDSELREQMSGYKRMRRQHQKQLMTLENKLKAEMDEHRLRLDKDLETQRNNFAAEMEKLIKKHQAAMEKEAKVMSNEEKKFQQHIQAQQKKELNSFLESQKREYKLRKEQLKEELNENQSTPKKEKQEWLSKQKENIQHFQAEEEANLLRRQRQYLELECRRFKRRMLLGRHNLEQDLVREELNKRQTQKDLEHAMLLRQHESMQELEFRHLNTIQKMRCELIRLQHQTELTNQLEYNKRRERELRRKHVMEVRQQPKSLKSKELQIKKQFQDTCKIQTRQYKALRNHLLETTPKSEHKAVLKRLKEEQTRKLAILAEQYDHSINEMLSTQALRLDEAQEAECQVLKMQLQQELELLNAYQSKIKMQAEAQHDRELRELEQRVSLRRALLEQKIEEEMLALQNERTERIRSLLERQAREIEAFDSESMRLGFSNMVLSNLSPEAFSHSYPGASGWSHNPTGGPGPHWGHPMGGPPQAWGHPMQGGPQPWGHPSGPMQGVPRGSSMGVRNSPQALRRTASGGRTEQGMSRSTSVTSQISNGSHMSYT

[7] = target: Casein kinase I isoform gamma-1 (Homo sapiens) (UniProt Q9HCP0); experiment: Inhibition of human recombinant CK1g1 at 15 nM in presence of ATP by radiometric assay relative to control
[8] = target: Serine/threonine-protein kinase pim-1 (Homo sapiens) (UniProt P11309); experiment: Inhibition of human recombinant PIM1 at 15 nM related to control ULK1
[9] = target: Tyrosine-protein kinase CSK (Homo sapiens) (UniProt P41240); experiment: Inhibition of human recombinant CSK at 15 nM related to control ULK1
[10] = target: 3-phosphoinositide-dependent protein kinase 1 (Homo sapiens) (UniProt O15530); experiment: Inhibition of human recombinant PDK1 at 15 nM related to control ULK1
[11] = target: Serine/threonine-protein kinase 38-like (Homo sapiens) (UniProt Q9Y2H1); experiment: Inhibition of human recombinant NDR2 at 500 nM in presence of ATP by radiometric assay relative to control
[12] = target: Tyrosine-protein kinase Lck (Homo sapiens) (UniProt P06239); experiment: Inhibition of human recombinant LCK at 500 nM related to control ULK1
[13] = target: T2, Tyrosine-protein kinase receptor TYRO3 (Homo sapiens) (UniProt Q06418); experiment: Inhibition of human recombinant TYRO3 at 500 nM related to control ULK1
T2 sequence (whole entry): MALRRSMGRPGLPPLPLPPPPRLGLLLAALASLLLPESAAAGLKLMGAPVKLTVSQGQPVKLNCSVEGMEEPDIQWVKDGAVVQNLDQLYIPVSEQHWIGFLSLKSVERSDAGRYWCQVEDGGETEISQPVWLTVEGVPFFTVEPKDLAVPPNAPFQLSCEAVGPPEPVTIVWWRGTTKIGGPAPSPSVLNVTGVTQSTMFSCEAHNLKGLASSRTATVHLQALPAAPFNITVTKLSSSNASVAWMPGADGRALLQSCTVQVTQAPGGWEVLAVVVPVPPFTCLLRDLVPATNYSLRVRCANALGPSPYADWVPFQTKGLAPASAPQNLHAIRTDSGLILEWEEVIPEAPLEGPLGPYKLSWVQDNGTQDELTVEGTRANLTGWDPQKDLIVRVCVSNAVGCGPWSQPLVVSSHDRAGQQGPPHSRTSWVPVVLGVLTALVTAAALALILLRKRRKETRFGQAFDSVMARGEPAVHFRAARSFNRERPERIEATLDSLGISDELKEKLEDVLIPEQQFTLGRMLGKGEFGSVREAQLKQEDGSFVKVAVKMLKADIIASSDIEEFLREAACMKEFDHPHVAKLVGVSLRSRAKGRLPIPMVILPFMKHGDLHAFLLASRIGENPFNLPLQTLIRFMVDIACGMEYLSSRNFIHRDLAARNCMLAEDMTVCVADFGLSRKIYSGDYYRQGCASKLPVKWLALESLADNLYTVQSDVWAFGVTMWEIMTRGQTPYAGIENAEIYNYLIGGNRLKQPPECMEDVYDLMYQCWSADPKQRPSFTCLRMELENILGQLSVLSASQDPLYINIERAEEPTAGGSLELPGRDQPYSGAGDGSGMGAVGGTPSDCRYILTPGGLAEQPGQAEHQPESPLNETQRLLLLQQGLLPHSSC

[14] = target: Tyrosine-protein kinase Lyn (Homo sapiens) (UniProt P07948); experiment: Inhibition of human recombinant LYN at 500 nM related to control ULK1

## O=C(N[C@@H](C1CC1)C(F)(F)F)c1cc(-c2cnn3cc(-c4ccc(F)cc4)cnc23)cs1
[1]
  fold change (FC): 0.04
[2]
  inhibition: 8%

## CC(C)[C@H](NC(=O)c1cc(-c2cnn3cc(-c4ccc(OCCN5CCCCC5)cc4)cnc23)cs1)C(F)(F)F
[3]
  inhibition: 54%
[4]
  fold change (FC): 0.05
[5]
  inhibition: 3%
[6]
  fold change (FC): 0
[7]
  inhibition: 0%
[8]
  fold change (FC): 0.16
[9]
  fold change (FC): 0.14
[10]
  fold change (FC): 0.07

## CNC(=O)c1ccccc1Oc1nc(Nc2cc(OC)c(OC)c(OC)c2)ncc1Br
[11]
  inhibition: 15%
[12]
  fold change (FC): 0.18
[13]
  fold change (FC): 0.14
[14]
  fold change (FC): 0.41
